In PMC11259170, “Small-molecule probe for IBD risk variant GPR65 I231L alters cytokine signaling networks through positive allosteric modulation” (Science Advances, 2024):
Read-outs that look alike come from different tables or passages of the source.

Tests used:
mGPR65 = molecular target: T1, mGPR65 (Mus musculus, UniProt Q61038); experiment: cAMP detection in HeLa expression cell line, mGPR65; type: cell-based; conditions: for Emax: HeLa, read-out: mGPR Max Activity %; for Emax / mGPR Max Activity: relative to 100uM forskolin (100%) and DMSO (0%); for mGPR Max Activity: third pair
T1 construct: expressed in transfected cells; host or cells: HeLa (ATCC CCL-2), lentiviral transduction, pLX317
T1 sequence (Q61038 whole entry): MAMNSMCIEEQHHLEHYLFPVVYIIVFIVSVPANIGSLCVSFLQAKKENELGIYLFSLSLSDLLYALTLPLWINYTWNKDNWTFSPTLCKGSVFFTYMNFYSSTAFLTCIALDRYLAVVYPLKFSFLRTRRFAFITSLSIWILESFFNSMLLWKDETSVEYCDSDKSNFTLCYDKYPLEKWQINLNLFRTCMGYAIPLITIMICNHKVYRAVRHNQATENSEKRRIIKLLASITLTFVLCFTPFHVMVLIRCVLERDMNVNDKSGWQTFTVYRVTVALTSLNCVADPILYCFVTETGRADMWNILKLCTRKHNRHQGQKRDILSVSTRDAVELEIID
How it was run: (§1)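 HeLa cells stably expressing C-terminally V5-tagged receptor (lentiviral transduction, puromycin-selected) were stimulated with compound from a 10 mM DMSO stock for 30 min at RT in stimulation buffer adjusted to pH 7.2, 1500 cells per well. cAMP was read by LANCE Ultra TR-FRET (665/620 nm) after 1 h detection.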

[1] = system: GFP-expressing HeLa cells; experiment: cAMP detection in HeLa expression cell line, GFP control; type: cell-based, human; conditions: for Emax / EC50: Homo sapiens, HeLa; for Emax / GFP Max Activity: relative to 100uM forskolin (100%) and DMSO (0%); for Emax: read-out: GFP Max Activity %; for EC50: SAR cAMP assay; for GFP Max Activity: third pair
How it was run: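 HeLa cells stably expressing C-terminally V5-tagged receptor or GFP (lentiviral, puromycin 3 μg/ml) stimulated at 1500 cells per well for 30 min at RT with compound (10 mM DMSO stock) in stimulation buffer at pH 7.2. cAMP detected by Lance Ultra TR-FRET after lysis and 1 h detection, excitation 337 nm, emission 620/665 nm.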

hGPR65 = molecular target: T2, hGPR65 (Homo sapiens, UniProt Q8IYL9); experiment: cAMP detection in HeLa expression cell line, hGPR65; type: cell-based; conditions: for Emax: HeLa, read-out: hGPR Max Activity %; for Emax / hGPR Max Activity: relative to 100uM forskolin (100%) and DMSO (0%); for hGPR Max Activity: third pair
T2 construct: expressed in transfected cells; host or cells: HeLa (ATCC CCL-2), lentiviral transduction, pLX317
T2 sequence (Q8IYL9 whole entry): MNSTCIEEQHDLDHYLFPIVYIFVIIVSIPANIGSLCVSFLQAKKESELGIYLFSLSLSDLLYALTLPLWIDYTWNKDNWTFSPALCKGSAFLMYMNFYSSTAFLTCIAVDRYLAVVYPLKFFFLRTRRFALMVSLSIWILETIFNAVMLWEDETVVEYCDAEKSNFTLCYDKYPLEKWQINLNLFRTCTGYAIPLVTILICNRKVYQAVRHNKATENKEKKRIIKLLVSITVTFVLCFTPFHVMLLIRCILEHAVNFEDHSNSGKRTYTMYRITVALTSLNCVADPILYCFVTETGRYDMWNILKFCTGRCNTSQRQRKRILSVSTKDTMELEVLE
How it was run: as §1

[2] = Solubility in phosphate buffer; type: physicochemical; conditions: read-out: Solubility
human GPR4 (hGPR4) = molecular target: T3, human GPR4 (hGPR4) (Homo sapiens, UniProt P46093); experiment: cAMP detection in HeLa expression cell line, hGPR4; type: cell-based; conditions: for EC50: pH 7.2, 30 min
T3 construct: expressed in transfected cells; host or cells: HeLa (ATCC CCL-2), lentiviral transduction, pLX317
T3 sequence (P46093 whole entry): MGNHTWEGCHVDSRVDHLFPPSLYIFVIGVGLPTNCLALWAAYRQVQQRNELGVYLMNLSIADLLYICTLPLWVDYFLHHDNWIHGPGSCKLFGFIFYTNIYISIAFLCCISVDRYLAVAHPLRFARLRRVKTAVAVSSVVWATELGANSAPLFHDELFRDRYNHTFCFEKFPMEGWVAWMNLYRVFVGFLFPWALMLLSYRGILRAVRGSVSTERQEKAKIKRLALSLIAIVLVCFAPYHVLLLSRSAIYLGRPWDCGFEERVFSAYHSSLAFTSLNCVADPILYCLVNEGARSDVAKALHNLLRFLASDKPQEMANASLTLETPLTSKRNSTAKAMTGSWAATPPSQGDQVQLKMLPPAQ
Procedure: HeLa stable expression cell lines were produced by lentiviral transduction. Briefly, lentiviral plasmids for each GPCR with a C-terminal V5 Tag ([…]) were made in a pLX317 backbone using competent Escherichia coli (New England Biolabs, C3050H). Lenti-X 293 T (Takara, 632810) cells were transfected with the lentiviral plasmids to produce virus. Low-passage HeLa cells (American Type Culture Collection, CCL-2) were then transduced with lentivirus. After 48 hours, HeLa cells were cultured under selection with puromycin (3 μg/ml) and allowed to recover and expand before storing stocks in liquid nitrogen.
cAMP was measured in cells using the Lance Ultra cAMP Kit. HeLa cells were cultured under puromycin (3 μg/ml) selection. One day before the experiment, cells were seeded in T75 flasks and allowed to adhere overnight. On the day of the experiment, cells were washed twice with Dulbecco’s PBS and lifted using prewarmed 1× versene solution (Gibco, 15040066). Cells were counted in HBSS (Gibco, 14025092) and then resuspended in stimulation buffer prepared according to the manufacturer’s instructions and adjusted to pH 7.2 using 1 M sodium hydroxide. Cells were added to the plate at a density of 1500 cells per well in white opaque 384-well assay ready microplates containing 100 nl of 10 mM compound in DMSO. Cells were stimulated for 30 min at RT, then lysed and incubated with detection reagents for 1 hour in the dark at RT. Plates were read on BMG Labtech PHERAstar FSX (excitation, 337 nm; emission, 620 and 665 nm). Data analysis was performed using GraphPad Prism.

Lipophilicity (logD) = type: physicochemical; conditions: pH 7.4; pH7.4; read-out: LogD (pH7.4)
[3] = Comment on solubility in SAR table; type: physicochemical
Description: Supplement sciadv.adn2339_data_s1_to_s4.zip/sciadv.adn2339_data_s2.xlsx, sheet "SAR cAMP Assay"

hGPR65-SmBiT = molecular target: T4, hGPR65-SmBiT (Homo sapiens, UniProt Q8IYL9); experiment: Nano-BiT target engagement, LgBiT-mGs recruitment to hGPR65-SmBiT in Expi293F cells; type: cell-based; conditions: 10 μM
T4 construct: expressed in transfected cells; host or cells: Expi293F (Gibco), transient transfection
T4 sequence (Q8IYL9 whole entry): as the sequence (Q8IYL9 whole entry) above
Procedure: (§2) Target engagement was measured in Expi293F (Gibco, 100044202) cells using the Nano-Glo Live Cell Assay System (Promega, N2011). Nano-BiT plasmids were cloned from GPR65-, GPR4-, and GPR68-Tango plasmids. GPR65-Tango (Addgene plasmid # 66370; http://n2t.net/addgene:66370; RRID:Addgene_66370), GPR4-Tango (Addgene plasmid # 66358; http://n2t.net/addgene:66358; RRID:Addgene_66358), and GPR68-Tango (Addgene plasmid # 66371; http://n2t.net/addgene:66371; RRID:Addgene_66371) were gifts from Bryan Roth. Expi293F cells were transfected 1 day before kinetics with 500 ng of each plasmid using ExpiFectamine 293 Transfection Kit (Gibco, A14525). After 24 hours, cells were collected, washed, and resuspended in room temperature 0.1% PBS-BSA, adjusted to pH 7.4 using 1 M NaOH. Cells were transferred to white opaque 96-well microplates (100 μl per well, PerkinElmer, 6005290), followed by addition of the Nano-Glo Live Cell Reagent (25 μl per well). Baseline luminescence was measured for 10 cycles (1 cycle = 90 s) before adding compounds. All luminescence measurements were made on BMG Labtech PHERAstar FSX. Data analysis was performed using GraphPad Prism.

mGPR65-SmBiT = molecular target: T5, mGPR65-SmBiT (Mus musculus, UniProt Q61038); experiment: Nano-BiT target engagement, LgBiT-mGs recruitment to mGPR65-SmBiT; type: cell-based; conditions: 10 μM
T5 construct: expressed in transfected cells; host or cells: Expi293F (Gibco), transient transfection
T5 sequence (Q61038 whole entry): as the sequence (Q61038 whole entry) above
Procedure: as §2

hGPR4-SmBiT = molecular target: T6, hGPR4-SmBiT (Homo sapiens, UniProt P46093); experiment: Nano-BiT target engagement, LgBiT-mGs recruitment to hGPR4-SmBiT; type: cell-based; conditions: 10 μM
T6 construct: expressed in transfected cells; host or cells: Expi293F (Gibco), transient transfection
T6 sequence (P46093 whole entry): as the sequence (P46093 whole entry) above
Procedure: as §2

[4] = 2nd mGPR column pair, NA = no activity
[5] = mGPR EC50 (uM), 2nd mGPR column pair, NA = no activity
[6] = mGPR EC50 (uM), first pair of columns, pH 7.2, 30 min
[7] = mGPR EC50 (uM), second pair of columns, pH 7.2, 30 min
[8] = mGPR EC50 (uM), NA = no activity
[9] = 1st hGPR column pair, NA = no activity
[10] = 2nd hGPR column pair, NA = no activity
[11] = hGPR EC50 (uM), NA = no activity
[12] = SAR cAMP assay, first EC50/Max pair of hGPR columns, read-out: hGPR EC50
[13] = SAR cAMP assay, third EC50/Max pair of mGPR columns, read-out: mGPR EC50
[14] = third EC50/Max pair of GFP control columns
[15] = SAR cAMP assay, second EC50/Max pair of hGPR columns, read-out: hGPR EC50
[16] = SAR cAMP assay, third EC50/Max pair of hGPR columns, read-out: hGPR EC50

Compound | Emax (mGPR65; [4]) [%] | Emax (mGPR65; NA = no activity) [%] | EC50 (mGPR65; [5]) [µM] | EC50 (mGPR65; [6]) [µM] | EC50 (mGPR65; [7]) [µM] | EC50 (mGPR65; [8]) [µM] | cAMP activity, mGPR65 (mGPR65; pH 7.2) | Emax (hGPR65; [9]) [%] | Emax (hGPR65; [10]) [%] | EC50 (hGPR65; [11]) [µM] | EC50 (hGPR65; hGPR EC50 (uM), pH 7.2, 30 min) [µM] | EC50 (hGPR65; hGPR EC50, NA = no activity) [µM] | EC50 (hGPR65; hGPR EC50, pH 7.2, 30 min) [µM] | cAMP activity, hGPR65 (hGPR65; pH 7.2) | solubility [2] [µM] | EC50 (human GPR4 (hGPR4); GPR4 EC50 (uM)) [µM] | logD (Lipophilicity (logD)) | Comments (solubility) [3] | Emax (hGPR65; first pair) [%] | EC50 (hGPR65; [12]) [µM] | other results
Cc1ccc(NC(=O)c2cnn3c(O)cc(-c4ccc(F)c(Cl)c4)nc23)cc1 [BRD5067, O=C(NC1=CC=C(C)C=C1)C2=C3N(N=C2)C(O)=CC(C4=CC=C(F)C(Cl)=C4)=N3] | 37.6 | 41.4 | 0.537 | 0.449 | 0.23 | 0.328 | at least 40% | 74.6 | 69.2 | 0.232 | 0.534 | 0.583 | 0.554 | at least 40% | < 1.56 | 0.494 | > 4.89 | – | – | – | Emax ([1]; 2nd GFP column pair, NA = no activity): 1.17%; EC50 (human GPR4 (hGPR4); GPR4 EC50, second pair of columns): 0.687 µM; cAMP induction in the hGPR4 cell line (human GPR4 (hGPR4); pH 7.2): additionally induced cAMP
Cc1ccc(NC(=O)c2cnn3c(O)cc(-c4ccc(-c5ccncc5)cc4)nc23)cc1 [BRD0844] | – | – | – | – | – | – | – | – | – | – | – | – | – | – | – | – | – | Poor solubility. | 30.3 | 7.97 | –
Cc1ccc(NC(=O)c2cnn3c(O)cc(-c4cccc(-c5ccccc5)c4)nc23)cc1 [BRD8101] | – | – | – | – | – | – | – | – | – | – | – | – | – | – | – | – | – | Poor solubility. | – | – | Emax (mGPR65; second pair): 73.1%; EC50 (mGPR65; SAR cAMP assay, second EC50/Max pair of mGPR columns, read-out: mGPR EC50): 0.566 µM; EC50 (mGPR65; [13]): 0.0897 µM; mGPR Max Activity (mGPR65): 82.45%; EC50 [1, 14]: 3200 nM; GFP Max Activity [1]: 2.825%; Emax (hGPR65; second pair): 7.53%; EC50 (hGPR65; [15]): 9.64 µM; EC50 (hGPR65; [16]): 13.6 µM; hGPR Max Activity (hGPR65): 28.01%
Cc1ccc(NC(=O)c2cnn3c(O)cc(-c4ccc(-c5cccc(C(C)C)c5)cc4)nc23)cc1 [BRD4922] | – | – | – | – | – | – | – | – | – | – | – | – | – | – | – | – | – | Poor solubility. | 47.3 | 3.82 | EC50 (mGPR65; [13]): 0.9 µM; mGPR Max Activity (mGPR65): 35.02%; EC50 ([1]; second EC50/Max pair of GFP control columns): 2440 nM; EC50 [1, 14]: 6470 nM; Emax ([1]; second pair): 0.205%; GFP Max Activity [1]: 1.632%; Emax (hGPR65; second pair): 51.9%; EC50 (hGPR65; [15]): 1.42 µM; EC50 (hGPR65; [16]): 0.688 µM; hGPR Max Activity (hGPR65): 55.72%
Cc1ccc(NC(=O)c2cnn3c(O)cc(-c4ccc(COC(C)C)c(Cl)c4)nc23)cc1 [BRD5059, O=C(NC1=CC=C(C)C=C1)C2=C3N(N=C2)C(O)=CC(C4=CC=C(COC(C)C)C(Cl)=C4)=N3] | 42.2 | 51 | 0.379 | 0.591 | 0.546 | 0.505 | at least 40% | 76 | 75.4 | 0.577 | 0.478 | 0.288 | 0.618 | at least 40% | < 1.56 | 1.68 | > 5.25 | – | – | – | activity for mGPR65 among prioritized molecules (mGPR65; 1.56 μM, pH 7.2): highest activity; mGs recruitment / engagement of hGPR65 (hGPR65-SmBiT): showed engagement; activity after HCl versus water, hGPR65 (hGPR65-SmBiT; HCl or H2O at cycle 10): showed activity when preceded by the addition of HCl but not water; mGs recruitment / engagement of mGPR65 (mGPR65-SmBiT): showed engagement; activity after HCl versus water, mGPR65 (mGPR65-SmBiT; HCl or H2O at cycle 10): showed activity when preceded by the addition of HCl but not water; response in cells expressing hGPR4-SmBiT (hGPR4-SmBiT): failing to elicit responses; activity for hGPR65 among prioritized molecules (hGPR65; 1.56 μM, pH 7.2): highest activity
